According to article PMC10728186, “Acid phosphatase-like proteins, a biogenic amine and leukotriene-binding salivary protein family from the flea Xenopsylla cheopis” (Communications Biology, 2023):
Read-outs that look alike come from different tables or passages of the source.

Tests used:
Format in all cases: binding
[1] = target: T1, XcAP-2 (Xenopsylla cheopis, UniProt A2IA93); test: isothermal titration calorimetry
T1 construct: mature ORF (no signal peptide) in pcDNA3.1(+), secreted from HEK293 / Expi293; natural Gly and Pro in place of the two catalytic His; Thr10, Ile228, His265 (mature count)
T1 sequence (A2IA93 20-378): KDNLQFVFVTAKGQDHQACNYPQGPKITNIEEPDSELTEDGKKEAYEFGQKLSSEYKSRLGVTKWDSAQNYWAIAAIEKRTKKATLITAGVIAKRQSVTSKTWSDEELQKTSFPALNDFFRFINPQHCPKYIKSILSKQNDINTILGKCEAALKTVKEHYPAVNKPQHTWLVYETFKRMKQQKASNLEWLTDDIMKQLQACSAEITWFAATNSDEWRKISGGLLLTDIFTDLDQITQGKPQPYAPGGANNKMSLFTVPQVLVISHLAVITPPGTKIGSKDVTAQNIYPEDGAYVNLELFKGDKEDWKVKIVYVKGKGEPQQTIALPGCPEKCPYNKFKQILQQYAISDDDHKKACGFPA
From the text: isothermal titration calorimetry on XcAP-2

[2] = target: T2, XcAP-3 (Xenopsylla cheopis, UniProt A2IA90); test: isothermal titration calorimetry
T2 construct: mature ORF (no signal peptide) in pcDNA3.1(+), secreted from HEK293 / Expi293; natural Gly and Pro in place of the two catalytic His; Thr10, Ile229, Lys266 (mature count)
T2 sequence (A2IA90 20-380): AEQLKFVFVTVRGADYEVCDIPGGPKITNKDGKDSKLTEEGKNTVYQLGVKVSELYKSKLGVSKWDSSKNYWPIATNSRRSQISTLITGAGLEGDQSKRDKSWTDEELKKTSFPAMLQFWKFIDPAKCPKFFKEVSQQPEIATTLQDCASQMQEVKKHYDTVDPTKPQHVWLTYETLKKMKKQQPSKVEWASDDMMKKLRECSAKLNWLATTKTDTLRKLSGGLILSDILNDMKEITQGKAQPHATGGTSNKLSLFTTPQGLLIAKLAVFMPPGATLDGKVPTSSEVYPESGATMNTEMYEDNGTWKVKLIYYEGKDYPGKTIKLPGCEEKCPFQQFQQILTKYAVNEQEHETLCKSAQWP
From the text: isothermal titration calorimetry on XcAP-3

[3] = target: T3, XcAP-1 (Xenopsylla cheopis, UniProt A2IA89); test: isothermal titration calorimetry
T3 construct: mature ORF (no signal peptide) in VR1020 vector, secreted from HEK293 / Expi293; monomer; residues Asp7-Asn361 (mature count) seen in crystal; natural Gly and Ser in place of the two catalytic His
T3 sequence (A2IA89 17-374): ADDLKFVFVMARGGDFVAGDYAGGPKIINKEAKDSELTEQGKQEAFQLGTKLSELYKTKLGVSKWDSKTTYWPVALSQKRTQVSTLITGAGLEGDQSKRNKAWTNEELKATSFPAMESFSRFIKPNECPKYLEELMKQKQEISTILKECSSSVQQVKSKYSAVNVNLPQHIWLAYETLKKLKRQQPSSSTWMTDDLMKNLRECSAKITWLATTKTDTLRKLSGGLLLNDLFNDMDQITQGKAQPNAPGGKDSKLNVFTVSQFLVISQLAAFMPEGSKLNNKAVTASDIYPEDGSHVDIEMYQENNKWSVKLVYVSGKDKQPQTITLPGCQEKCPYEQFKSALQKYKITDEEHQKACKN
From the text: isothermal titration calorimetry on XcAP-1

[4] = target: T3, XcAP-1; test: crystal structure […] A; conditions: co-purified from HEK293 culture, modelled from density; pocket near substituted catalytic residues; second site beside serotonin
[5] = target: T3, XcAP-1; test: isothermal titration calorimetry; crystal structure […] A

SMILES | Kd ([1]; read-out: XcAP-2) [nM] | Kd ([3]; read-out: XcAP-1) [nM] | other results
CCCCC/C=C\C[C@@H](O)/C=C/C=C/C=C\[C@@H](O)CCCC(=O)O [LTB4] | 111 | – | –
NCCc1c[nH]cn1 [Histamine] | 37.7 | – | Kd ([2]; read-out: K (M^-1) (converted)): 29.2 nM; Kd ([2]; read-out: XcAP-3): 37 nM; Kd ([1]; read-out: K (M^-1) (converted)): 43.9 nM
CCCCC/C=C\C\C=C/C=C/C=C/[C@@H](SC[C@H](NC(=O)CC[C@H](N)C(=O)O)C(=O)NCC(=O)O)[C@@H](O)CCCC(=O)O [LTC4] | 78.7 | 37.4 | Kd ([2]; read-out: XcAP-3): 65.8 nM
NC[C@H](O)c1ccc(O)c(O)c1 [Norepinephrine] | – | 76.9 | –
CCCCC/C=C\C\C=C/C=C/C=C/[C@@H](SC[C@H](N)C(=O)O)[C@@H](O)CCCC(=O)O [LTE4] | 60.2 | – | –
CCCCCC/C=C\CCCCCCCC(=O)O [palmitoleic acid] | – | – | crystal structure 1.75 A [4]: near the putative catalytic site of XcAP-1 was also observed, in which we modeled a palmitoleic acid
NCCc1c[nH]c2ccc(O)cc12 [Serotonin] | – | – | Kd ([3]; read-out: K (M^-1) (converted)): 5.92 nM; Kd [5]: 3.72 nM
CCCCC/C=C\C\C=C/C=C/C=C/[C@@H](SC[C@H](N)C(=O)NCC(=O)O)[C@@H](O)CCCC(=O)O [LTD4] | 153 | – | –
CNC[C@H](O)c1ccc(O)c(O)c1 [Epinephrine] | – | 17.7 | –
